Assay results as given in patent publication US20220009914A1, “Analogs of Nitrofuran Antibiotics to Combat Resistance” (The Trustees of Indiana University, priority 2020, published 2022).
Read-outs that look alike come from different tables or passages of the source.

What was measured:
[1] = tested on: Pseudomonas aeruginosa strain NCTC 10332 (ATCC #10145); assay: bacterial proliferation assay, P. aeruginosa; assay type: cell-based; conditions: read-out: Bacterial Proliferation EC50 P. aeruginosa
Description: (§1) All compounds were evaluated for inhibiting the proliferation of E. coli and each of the ESKAPE bacteria. Results presented represent the averages of EC50 values obtained from at least four replicates. Evaluating compounds for inhibition of bacterial cell proliferation.
(§2) Growth Media: E. coli were grown with LB medium and all ESKAPE bacteria were grown in Brain Heart Infusion (BHI) medium (Becton, Dickinson and Company), with all liquid cultures supplemented with 25 mg/L Ca^2+ and 12.5 mg/L Mg^2+ to mimic physiological free concentrations of these cations. A 10 mg/mL Ca^2+ stock solution was prepared by dissolving 1.84 g of CaCl2.2H2O in 50 mL of deionized water, and a 10 mg/mL Mg^2+ stock solution was prepared by dissolving 4.18 g of MgCl2.6H2O in 50 mL deionized water—filter sterilized using 0.2 μm cellulose-acetate filters. 2.5 mL of the sterile 10 mg/mL Ca^2+ stock and 1.25 mL of the sterile 10 mg/mL Mg^2+ stock solutions were added per 1 L of autoclaved LB or BHI media to obtain 25 mg/L Ca^2+ and 12.5 mg/L Mg^2+ ions, respectively.
(§3) General Assay Protocol: Stock bacterial cultures were streaked onto LB or BHI agar plates and grown overnight at 37° C. Fresh aliquots of cation supplemented media were inoculated with single bacterial colonies and the cultures were grown overnight at 37° C. with shaking (240 rpm). The following morning, cultures were diluted 10-fold into fresh media and grown at 37° C. until bacteria had reached mid-log phase growth (OD600˜0.4-0.6). The cultures were then diluted into fresh media to achieve final OD600 readings of 0.017. Aliquots of these diluted cultures (30 μL) were added to clear, flat-bottom 384-well polystyrene plates that were previously stamped with 0.5 μL of test compounds in 20 μL of media (yielding initial OD600=0.01 bacterial cultures). All compounds were tested in dose-response with concentration ranges during the proliferation assays from 100 μM to 46 nM (3-fold dilution series). A second set of baseline control plates were prepared analogously, but without any bacteria added, to correct for possible compound absorbance and/or precipitation. […] Plates were then read at 600 nm using a Molecular Devices SpectraMax Plus384 microplate reader. […] Results presented represent the averages of EC50 values obtained from at least four replicates.
(§4) Evaluating analogs for inhibiting the growth of E. coli and the ESKAPE bacteria. Analogs were initially tested for antibacterial efficacy against representative strains of antibiotic-sensitive E. coli and the ESKAPE bacteria. To determine compound efficacy, bacterial proliferation assays were carried out in liquid media culture supplemented with physiological concentrations of free calcium and magnesium cations. For these assays, bacterial cultures (OD600=0.01) were exposed to test compounds in 8-point, 3-fold dilution series (100 μM to 46 nM concentration range), in 384-well plates. After addition of compounds to cultures, the plates were sealed with Breathe-Easy gas permeable membranes and allowed to grow to mid-log phase (OD600˜0.4-0.6), whereupon final OD600 readings were taken to assess for bacterial growth and inhibition.

native MDH = target: T1, native MDH (Sus scrofa, UniProt P00346); assay: native MDH activity counter-screen in the presence of E. coli NfsB nitroreductase; assay type: biochemical, pig
T1 sequence (P00346 25-338): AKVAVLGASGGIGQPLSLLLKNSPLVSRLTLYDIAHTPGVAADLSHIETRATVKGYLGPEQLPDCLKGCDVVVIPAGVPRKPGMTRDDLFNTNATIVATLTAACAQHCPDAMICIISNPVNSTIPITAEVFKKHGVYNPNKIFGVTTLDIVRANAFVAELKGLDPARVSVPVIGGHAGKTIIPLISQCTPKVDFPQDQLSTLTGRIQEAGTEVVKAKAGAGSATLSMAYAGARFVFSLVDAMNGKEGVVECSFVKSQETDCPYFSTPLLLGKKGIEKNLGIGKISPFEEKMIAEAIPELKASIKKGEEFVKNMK
Description: Evaluating compounds for inhibition in the GroEL/ES-mediated dMDH refolding assay and native MDH activity counter-screen in the presence of E. coli NfsB nitroreductase. These assays were performed nearly identically to those mentioned above, but with a couple distinct modifications. […] The remainder of the assay was conducted as in our standard protocol where no NfsB nitroreductase was present. […] Results presented represent the averages of IC50 values obtained from at least four replicates in each assay.

[2] = tested on: NEB 5-alpha Escherichia coli; assay: bacterial proliferation assay, E. coli; assay type: cell-based; conditions: for EC50: read-out: Bacterial Proliferation EC50 E. coli
Description: as §1, §2, §3, §4

[3] = with E. coli NfsB nitroreductase, read-out: Native MDH Activity w/NfsB IC50

SMILES | EC50 [1] [µM] | IC50 (native MDH; [3]) [µM] | EC50 ([2]; Escherichia coli) [µM] | IC50 (native MDH) [µM] | inhibition of E. coli proliferation in words [2] | EC50 [2] [µM]
O=C1CN(/N=C/c2ccc(O)c3ncccc23)C(=O)N1 [Compound 2, 1-(((8-hydroxyquinolin-5-yl)methylene)amino)imidazolidine-2,4-dione] | > 100 | > 56 | 80 | – | – | –
O=C(N/N=C/c1ccc(O)c2ccccc12)c1ccccc1 [Compound 30, N′-((4-hydroxynaphthalen-1-yl)methylene)benzohydrazide] | > 100 | > 56 | > 100 | – | – | –
COc1ccc(C(=O)N/N=C/c2ccc(O)c3ccccc23)cc1 [Compound 29, N′-((4-hydroxynaphthalen-1-yl)methylene)-4-methoxybenzohydrazide] | > 100 | > 56 | > 100 | – | – | –
O=C(N/N=C/c1cccc2ccccc12)c1ccccc1 [Compound 34, N′-(naphthalen-1-ylmethylene)benzohydrazide] | > 100 | > 56 | > 100 | – | – | –
CCN(CC)S(=O)(=O)c1cccc(C(=O)N/N=C/c2ccc(O)c3ncccc23)c1 [Compound 12, N,N-diethyl-3-(2-((8-hydroxyquinolin-5-yl)methylene)hydrazine-1-carbonyl)benzenesulfonamide] | 85 | > 56 | 99 | – | – | –
O=C(N/N=C/c1ccc(O)c2ncccc12)c1cccc(Oc2ccccc2)c1 [Compound 11, N′-((8-hydroxyquinolin-5-yl)methylene)-3-phenoxybenzohydrazide] | > 100 | > 56 | > 100 | – | – | –
O=[N+]([O-])c1ccc(O)c2ncccc12 [Nitroxoline, reference compound] | 99 | > 56 | 4 | – | – | –
O=C(N/N=C/c1ccc([N+](=O)[O-])o1)c1ccc(O)cc1 [Nifuroxazide, reference compound] | > 100 | – | 0.87 | > 56 | potent inhibitors | –
O=C(N/N=C/c1ccc(O)c2ncccc12)c1ccc(Cl)s1 [Compound 4, 5-chloro-N′-((8-hydroxyquinolin-5-yl)methylene)thiophene-2-carbohydrazide] | > 100 | > 56 | > 100 | – | – | –
O=C(N/N=C/c1ccc(O)c2ncccc12)c1ccc(O)cc1 [Compound 7, 4-hydroxy-N′-((8-hydroxyquinolin-5-yl)methylene)benzohydrazide] | > 100 | > 56 | 46 | – | – | –
O=C(N/N=C/c1ccc([N+](=O)[O-])o1)c1cccc(Oc2ccccc2)c1 [Compound 24, N′-((5-nitrofuran-2-yl)methylene)-3-phenoxybenzohydrazide] | > 100 | > 56 | > 100 | – | – | –
O=C(N/N=C/c1ccc(O)c2ncccc12)c1ccc(NS(=O)(=O)c2ccc(Br)cc2)cc1 [Compound 14, 4-bromo-N-(4-(2-((8-hydroxyquinolin-5-yl)methylene)hydrazine-1-carbonyl)phenyl)benzenesulfonamide] | > 100 | > 56 | ≥ 100 | – | – | > 100
CN(C)c1ccc(C(=O)N/N=C/c2ccc(O)c3ncccc23)cc1 [Compound 8, 4-(dimethylamino)-N′-((8-hydroxyquinolin-5-yl)methylene)benzohydrazide] | > 100 | > 56 | 93 | – | – | –
O=C(N/N=C/c1ccc([N+](=O)[O-])o1)c1ccc(NS(=O)(=O)c2ccc(Br)cc2)cc1 [Compound 27, 4-bromo-N-(4-(2-((5-nitrofuran-2-yl)methylene)hydrazine-1-carbonyl)phenyl)benzenesulfonamide] | > 100 | – | > 100 | > 56 | – | –
COc1ccc(C(=O)N/N=C/c2cccc3ncccc23)cc1 [Compound 31, 4-methoxy-N′-(quinolin-5-ylmethylene)benzohydrazide] | > 100 | > 56 | > 100 | – | – | –
